Values after ≈ are worked out from the molar mass of the structure shown. One block for each compound: values may come before it.
What was measured:
[1] = Solubility of terephthalaldehyde and major impurities in water and dimethylsulfoxide; conditions: solvent H2O, measured at 25° C.
[2] = Stability of terephthalaldehyde in the dissolving solvent; assay type: physicochemical
Text: In a method for purifying terephthalaldehyde which comprises dissolving crude terephthalaldehyde in a solvent and then re-crystallizing the solution, using an anti-solvent, the present invention is characterized by using dimethylsulfoxide as the solvent. In the method for purifying terephthalaldehyde according to the present invention, usual alcohols or ethers may be used as a solvent dissolving terephthalaldehyde. However, dimethylsulfoxide according to the present invention has more excellent solubility of terephthalaldehyde and major impurities than those of the alcohols or the ethers, and may prepare terephthalaldehyde in a higher yield and purity.

[3] = 25 °C, organic solvent or mixture

solubility (physchem; dimethylsulfoxide (DMSO), 25 °C, organic solvent or mixture): 1000 mg/mL (≈ 6660 mM)
solubility (physchem; water, 25 °C): < 1.67 mg/mL
Structure (SMILES): O=Cc1ccc(C(=O)O)cc1 [4-CBA, 4-carboxybenzaldehyde]

solubility (physchem; [3]): 1000 mg/mL (≈ 8190 mM)
solubility (physchem; 25 °C, water): 2.5 mg/mL (≈ 20.5 mM)
Structure (SMILES): O=Cc1ccc(O)cc1 [4-HBA, 4-hydroxybenzaldehyde]

solubility (physchem; [3]): 1000 mg/mL (≈ 9080 mM)
solubility (physchem; 25 °C, water): 20 mg/mL (≈ 182 mM)
Structure (SMILES): Oc1ccc(O)cc1 [HQ, hydroquinone]

Solubility in H2O [1]: <1.67 mg/mL
Structure (SMILES): O=C(O)c1ccc(C(=O)O)cc1 [TPA, terphthalic acid]

Stability in alcohols such as methanol ([2]; alcohols such as methanol as solvent): changed into a material such as acetal
Stability in dimethylsulfoxide ([2]; dimethylsulfoxide as solvent): such change is not occurred
Structure (SMILES): O=Cc1ccc(C=O)cc1 [terephthalaldehyde]

Reference: patent US7714173B2, “Method for purifying terephthalaldehyde” (LG Chem, Ltd., priority 2006, dated 2010)
